Results reported in US20020165283A1, “Preservative blends containing quaternary ammonium compounds” (LONZA INC., priority 2001, published 2002).

System: S. aureus, P. aeruginosa, and E. coli
Experiment: Mixed bacterial challenge of preserved anionic protein shampoo samples (plate counts)
Assay type: cell-based
Description: Each anionic shampoo sample in Table 1 below was tested as follows. A standardized mixed bacterial solution was prepared according to the following procedure. 3 agar stabs of S. aureus (ATCC#6538), P. aeruginosa (ATCC#9027), and E. coli (ATCC #8739) were separately incubated at about 35° C. for about 24 hours. Each stab was then washed with 3 mL of sterile 0.85% saline solution. The washes of the 3 stabs were pooled together to form an organism mixture. The absorbance of the organism mixture at 530 nm was adjusted to about 1.00 by adding saline. The spectrometer was calibrated with a saline blank. A 5 mL aliquot of the organism mixture was mixed together to produce the standardized mixed bacterial solution. Then, 40 g of each shampoo sample was inoculated with 0.2 mL of the standardized mixed bacterial solution and mixed. 1 g of the mixture was added to a sterile 20×150 mm screw cap test tube. 9 mL of sterile D/E neutralizer broth was added to the test tube and mixed to form a 10^−1 dilution,. Serial dilutions were prepared through to a 10^−6 dilution with phosphate buffered water. The serial dilutions were plated onto Tryptic Soy Agar and incubated for 2 days at about 35° C. Bacteria counts were performed after 0 and 14 days.
The anionic protein shampoo composition was comprised of 35% by weight of sodium lauryl ether sulfate; 25% by weight of triethanolamine lauryl sulfate; 3% by weight coconut diethanolamide (cocamide DEA); 1% by weight of hydrolyzed collagen, available as Polypro 5000™ from Hormel Foods of Austin, Minn.; and 36% by weight of deionized water.
The sodium dehydroacetate monohydrate, sodium salicylate, and Hyamine® 1622 shampoo samples were prepared by mixing the appropriate amounts of the preservatives and the aforementioned anionic protein shampoo composition and heating the mixture to about 50° C. for about 15 minutes.
(§1) The procedure described in Example 1 was repeated with the anionic shampoos in Table 3 below. The bacterial counts were performed after 0 and 7 days. The dehydroacetic acid (available from Lonza Inc. of Fair Lawn, N.J.) and Hyamine® 1622 shampoo samples were prepared by mixing the appropriate amounts of the preservatives and the anionic protein shampoo composition and heating the mixture to about 50° C. for about 15 minutes.
as §1, with “5” for “3”, “salicylic” for “bacterial counts were performed after 0 and 7 days. The dehydroacetic”, “Spectrum Chemical” for “Lonza Inc.”, “New Brunswick,” for “Fair Lawn,”, “for” for “for about”

[1] = Table 5, 0.2% of preservative alone
[2] = Table 1, 0.5% by weight of preservative alone
[3] = Table 1, 1.0% by weight of preservative alone

CC(=O)C1C(=O)C=C(C)OC1=O (centres unmarked) [Dehydroacetic Acid, dehydroacetic acid]
S. aureus, P. aeruginosa, and E. coli (cfu/g) Day 0 (Table 3, 0.2% of preservative alone): 2.5 × 10^6 cfu/g | S. aureus, P. aeruginosa, and E. Coli (cfu/g) Day 7 (Table 3, 0.2% of preservative alone, Day 7): 4.4 × 10^4 cfu/g

O=C(O)c1ccccc1O [Salicylic Acid, salicylic acid]
S. aureus, P. aeruginosa, and E. coli (cfu/g) Day 0 [1]: 3.1 × 10^6 cfu/g | S. aureus, P. aeruginosa, and E. coli (cfu/g) Day 14 [1]: 6.5 × 10^6 cfu/g

CC(=O)c1c([O-])cc(C)oc1=O.O.[Na+] [Sodium Dehydroacetate Monohydrate, Sodium dehydroacetate monohydrate]
S. aureus, P. aeruginosa, and E. coli (cfu/g) Day 0 [2]: 3.0 × 10^6 cfu/g | S. aureus, P. aeruginosa, and E. coli (cfu/g) Day 14 [2]: 4.0 × 10^3 cfu/g

O=C([O-])c1ccccc1O.[Na+] [Sodium Salicylate, Sodium salicylate]
S. aureus, P. aeruginosa, and E. coli (cfu/g) Day 0 [3]: 3.0 × 10^6 cfu/g | S. aureus, P. aeruginosa, and E. coli (cfu/g) Day 14 [3]: 5.0 × 10^2 cfu/g
